# Structures can show the parent of a compound that is named as a salt. Where two headings read alike, the source gives them in different places.
# Columns and labels:
# [1] = tested on: FCR3 strain, a drug sensitive strain of Plasmodium falciparum; test: In vitro antimalarial assay (p-LDH, Malstat), FCR3 strain; type: cell-based; conditions: P. falciparum FCR3 (drug sensitive), 72 h culture, p-LDH readout, read-out: Antimalarial activity (IC50 value), Strain FCR3
# Source text: (§1) For the evaluation of the antimalarial activity of the compound of the present invention, K1 strain, a drug resistant strain of Plasmodium falciparum, and FCR3 strain, a drug sensitive strain thereof, which were generous gift from Professor Kiyoshi Kita of the Graduate School of Medicine and Faculty of Medicine, the University of Tokyo, were used to measure the in vitro antimalarial activity of the compound against those Plasmodium species according to the method established by Otoguro et al. (Otoguro, K., Kohana, A., Manabe, C., Ishiyama, A., Ui, H., Shiomi, K., Yamada, H. & Omura, S.: Potent antimalarial activity of polyether antibiotic, X-206. J. Antibiot., 54: 658-663, (2001)).
# (§2) The parasites were grown based on a slightly modified method from the original method reported by Trager and Jensen (Trager, W. and Jensen, J.: Human malaria parasites in continuous culture, Science, 193: 673-677, (1976)), and those which were maintained and sub-cultured by the method were used. More specifically, in a culture dish, erythrocytes infected with the protozoa, which had been sub-cultured using a RPMI 1640 medium to which 10% human plasma had been added and fresh human erythrocytes, were diluted (hematocrit value: 2 to 5%, parasitaemia: 0.25 to 1%), and were cultured at 37° C. in a mixed gas of 3% O2-4% CO2-93% N2, and continuously cultured while changing the medium and adding fresh erythrocytes at 2- or 3-day intervals.
# (§3) A drug susceptibility test was performed by modifying the method established by Desjardins et al. (Desjardins, R. E., Canfield, C. J., Haynes, D. E. and Chulay, J. D.: Quantitative assessment of antimalarial activity in vitro by a semiautomated microdilution technique. Antimicrob. Agents Chemother., 16: 710-718 (1979)). More specifically, 190 μL of a suspension of protozoa which had been precultured (hematocrit value: 2%, parasitaemia: 0.5 or 1%) and 10 μL of a solution of a test compound (5% DMSO solution) serially diluted so that the final concentration was 12.5 to 0.0001 μM were put in each well of a 96-well plate, and after mixing, the same was cultured for 72 hours in the above mixed gas.
# (§4) For the measurement of the growth of protozoa, the method established by Makler (Makler, M. T., Rise, J. M., Williams, J. A., Bancroft, J. E., Piper, R. C., Gibbins, B. L. and Hinrichs, D. J.: Parasite lactate dehydrogenase as an Assay for Plasmodium falciparum drug sensitivity, Am. J. Med. Hyg., 48: 739-741 (1993)) was modified to colorimetrically determine parasite lactate dehydrogenase (p-LDH) using Malstat reagent (Flow Inc., USA).
# (§5) More specifically, 72 hours after the culture, the 96-well plate was directly frozen at −20° C. for 18 hours and melted at 37° C. to hemolyze the protozoan-infected erythrocytes and destroy the protozoa to prepare a crude enzyme solution. 100 μL of Malstat reagent and 20 μL of the crude enzyme solution were added to and mixed in each well of another 96-well plate, and after reacting for 15 minutes at room temperature, 20 μL of a nitroblue tetrazolium 2 mg/mL phenazine ethosulfate 0.1 mg/mL=1:1 solution was added to the respective wells, and reaction was performed in dark conditions at room temperature for 2 hours.
# (§6) The absorbance of the blue formazan product formed by the reaction was measured at a measurement wavelength of 655 nm by using a microplate reader (Labsystems, Finland) to colorimetrically determine the growth of the protozoa. The 50% growth inhibitory concentration for the protozoa of the compound (IC50 value) was determined based on the concentration-response curve of the compound.
# [2] = tested on: K1 strain, a drug resistant strain of Plasmodium falciparum; test: In vitro antimalarial assay (p-LDH, Malstat), K1 strain; type: cell-based; conditions: read-out: Antimalarial activity (IC50 value), Strain K1
# Source text: as §1, §2, §3, §4, §5, §6
# [3] = P. falciparum K1 (drug resistant), 72 h culture, p-LDH readout
compound,measurement,setting,value
"Cc1ccc(Nc2nc(Nc3ccn4ccnc4c3)cc(N3CCN(C)CC3)n2)nc1 [Example 27, N4-(imidazo[1,2-a]pyridin-7-yl)-6-(4-methylpiperazin-1-yl)-N 2-(5-methylpyridin-2-yl) pyrimidine-2,4-diamine]",IC50,[1],1 to 10 µM
same,IC50,[2]; [3],0.1 to 1 µM
"Cc1cc(C)nc(Nc2nc(Nc3ccn4ccnc4c3)cc(N3C[C@H]4CCC[C@H]4C3)n2)c1 [Example 176, N2-(4,6-dimethylpyridin-2-yl)-6-[(3aR,6aS)-hexahydrocyclopenta [c]pyrrol-2(1H)-yl]-N4-(imidazo[1,2-a]pyridin-7-yl) pyrimidine-2,4-diamine]",IC50,[1],< 0.1 µM
same,IC50,[2]; [3],< 0.1 µM
"Cc1cc(C)nc(Nc2nc(Nc3ccn4ccnc4c3)cc(N3CC[C@@H](F)C3)n2)c1 [Example 186, (R)-N2-(4,6-dimethylpyridin-2-yl)-6-(3-fluoropyrrolidin-1-yl)-N4-(imidazo[1,2-a]pyridin-7-yl) pyrimidine-2,4-diamine]",IC50,[1],< 0.1 µM
same,IC50,[2]; [3],< 0.1 µM
"c1cc(Nc2nc(Nc3ccn4ccnc4c3)cc(N3CCOCC3)n2)ncn1 [Example 22, N4-(Imidazo[1,2-a]pyridin-7-yl)-6-morpholino-N2-(pyrimidin-4-yl)pyrimidine-2,4-diamine]",IC50,[1],0.1 to 1 µM
same,IC50,[2]; [3],0.1 to 1 µM
"COc1cc(C)nc(Nc2nc(Nc3ccn4ccnc4c3)cc(N3CCCCC3)n2)c1 [Example 190, N4-(imidazo[1,2-a]pyridin-7-yl)-N2-(4-methoxy-6-methylpyridin-2-yl)-6-(piperidin-1-yl) pyrimidine-2,4-diamine]",IC50,[1],< 0.1 µM
same,IC50,[2]; [3],< 0.1 µM
"CCc1ccnc(Nc2nc(Nc3ccn4ccnc4c3)cc(N3CCN[C@H](C)C3)n2)c1 [Example 102, (R)-N2-(4-ethylpyridin-2-yl)-N4-(imidazo[1,2-a]pyridin-7-yl)-6-(3-methylpiperazin-1-yl)pyrimidine-2,4-diamine]",IC50,[1],0.1 to 1 µM
same,IC50,[2]; [3],0.1 to 1 µM
"CCCCc1cc(C)cc(Nc2nc(Nc3ccn4ccnc4c3)cc(N3CCCCC3)n2)n1 [Example 187, N2-(6-butyl-4-methylpyridin-2-yl)-N4-(imidazo[1,2-a]pyridin-7-yl)-6-(piperidin-1-yl) pyrimidine-2,4-diamine]",IC50,[1],0.1 to 1 µM
same,IC50,[2]; [3],0.1 to 1 µM
"CCCOc1cccc(Nc2nc(Nc3ccn4ccnc4c3)cc(N3CCCC3)n2)n1 [Example 151, N4-(imidazo[1,2-a]pyridin-7-yl)-N2-(6-propoxypyridin-2-yl)-6-(pyrrolidin-1-yl)pyrimidine-2,4-diamine]",IC50,[1],0.1 to 1 µM
same,IC50,[2]; [3],0.1 to 1 µM
"CCOc1ccnc(Nc2nc(Nc3ccn4ccnc4c3)cc(N3CCCC3)n2)c1 [Example 145, N2-(4-ethoxypyridin-2-yl)-N4-(imidazo[1,2-a]pyridin-7-yl)-6-(pyrrolidin-1-yl)pyrimidine-2,4-diamine]",IC50,[1],< 0.1 µM
same,IC50,[2]; [3],0.1 to 1 µM
"CCOc1cc(Nc2ccn3ccnc3c2)nc(Nc2ccc(OC(C)C)nc2)n1 [Example 57, 6-Ethoxy-N4-(Imidazo[1,2-a]pyridin-7-yl)-N2-(6-isopropoxypyridin-3-yl)pyrimidine-2,4-diamine]",IC50,[1],0.1 to 1 µM
same,IC50,[2]; [3],1 to 10 µM
"Cc1cc(C)nc(Nc2nc(Nc3ccn4ccnc4c3)cc(N3CCOCC3)n2)c1 [Example 2, N2-(4,6-dimethylpyridin-2-yl)-N4-(imidazo[1,2-a]pyridin-7-yl)-6-morpholinopyrimidine-2,4-diamine]",IC50,[1],< 0.1 µM
same,IC50,[2]; [3],< 0.1 µM
"OCc1cccc(Nc2nc(Nc3ccn4ccnc4c3)cc(N3CCCCC3)n2)n1 [Example 192, (6-{[4-(imidazo[1,2-a]pyridin-7-ylamino)-6-(piperidin-1-yl)pyrimidin-2-yl]amino}pyridin-2-yl)methanol]",IC50,[1],0.1 to 1 µM
same,IC50,[2]; [3],1 to 10 µM
"CC(C)(C)c1cccc(Nc2nc(Nc3ccn4ccnc4c3)cc(N3CCOCC3)n2)n1 [Example 124, N2-(6-(tert-butyl)pyridin-2-yl)-N4-(imidazo[1,2-a]pyridin-7-yl)-6-morpholinopyrimidine-2,4-diamine]",IC50,[1],0.1 to 1 µM
same,IC50,[2]; [3],0.1 to 1 µM
"c1cc(Nc2nc(Nc3ccn4ccnc4c3)cc(N3CCOCC3)n2)nc(C2CC2)c1 [Example 110, N2-(6-cyclopropylpyridin-2-yl)-N4-(imidazo[1,2-a]pyridin-7-yl)-6-morpholinopyrimidine-2,4-diamine]",IC50,[1],< 0.1 µM
same,IC50,[2]; [3],0.1 to 1 µM
"CC(C)(C)OCCOc1cccc(Nc2nc(Nc3ccn4ccnc4c3)cc(N3CCCC3)n2)n1 [Example 156, N2-{6-[2-(tert-butoxy)ethoxy]pyridin-2-yl}-N4-(imidazo[1,2-a]pyridin-7-yl)-6-(pyrrolidin-1-yl)pyrimidine-2,4-diamine]",IC50,[1],< 0.1 µM
same,IC50,[2]; [3],0.1 to 1 µM
"Cc1cc(C)nc(Nc2nc(Nc3ccn4ccnc4c3)cc(N3CCC(C)(C)CC3)n2)c1 [Example 182, 6-(4,4-dimethylpiperidin-1-yl)-N2-(4,6-dimethylpyridin-2-yl)-N4-(imidazo[1,2-a]pyridine-7-yl)pyrimidine-2,4-diamine]",IC50,[1],0.1 to 1 µM
same,IC50,[2]; [3],0.1 to 1 µM
"COc1ccc(Nc2nc(Nc3ccn4ccnc4c3)cc(N3CCOCC3)n2)cn1 [Example 1, N4-(Imidazo[1,2-a]pyridin-7-yl)-N2-(6-methoxypyridin-3-yl)-6-morpholinopyrimidine-2,4-diamine]",IC50,[1],< 0.1 µM
same,IC50,[2]; [3],< 0.1 µM
"CCOc1ccc(Nc2nc(Nc3ccn4ccnc4c3)cc(N3CCN(C)[C@@H](C)C3)n2)cn1 [Example 52, (S)-6-(3,4-Dimethylpiperazin-1-yl)-N2-(6-ethoxypyridin-3-yl)-N4-(imidazo[1,2-a]pyridin-7-yl) pyrimidine-2,4-diamine]",IC50,[2]; [3],1 to 10 µM
"c1cc(Nc2nc(Nc3ccn4ccnc4c3)cc(N3CCOCC3)n2)ccn1 [Example 3, N4-(imidazo[1,2-a]pyridin-7-yl)-6-morpholino-N2-(pyridin-4-yl)pyrimidine-2,4-diamine dihydrochloride]",IC50,"[2]; K1, 72 h",1 to 10 µM
"c1cnc(Nc2nc(Nc3ccn4ccnc4c3)cc(N3CCOCC3)n2)nc1 [Example 16, N4-(Imidazo[1,2-a]pyridin-7-yl)-6-morpholino-N2-(pyrimidin-2-yl)pyrimidine-2,4-diamine]",IC50,[2]; [3],1 to 10 µM
"C=CCOc1ccc(Nc2nc(Nc3ccn4ccnc4c3)cc(N3CCOCC3)n2)cn1 [Example 76, N2-(6-(allyloxy)pyridin-3-yl)-N4-(imidazo[1,2-a]pyridin-7-yl)-6-morpholinopyrimidine-2,4-diamine]",IC50,[2]; [3],1 to 10 µM
"CC(C)Oc1ccc(Nc2nc(Nc3ccn4ccnc4c3)cc(N3CCN(C)[C@@H](C)C3)n2)cn1 [Example 56, (S)-6-(3,4-dimethylpiperazin-1-yl)-N4-(imidazo[1,2-a]pyridin-7-yl)-N2-(6-isopropoxypyridin-3-yl)pyrimidine-2,4-diamine]",IC50,[2]; [3],1 to 10 µM
"CC(C)Oc1ccc(Nc2nc(Nc3ccn4ccnc4c3)cc(N3CCN(C)CC3)n2)cn1 [Example 59, N4-(imidazo[1,2-a]pyridin-7-yl)-N2-(6-isopropoxypyridin-3-yl)-6-(4-methylpiperazin-1-yl) pyrimidine-2,4-diamine]",IC50,[2]; [3],1 to 10 µM
"Oc1ccc(Nc2nc(Nc3ccn4ccnc4c3)cc(N3CCOCC3)n2)cn1 [Example 24, 5-(4-(Imidazo[1,2-a]pyridin-7-ylamino)-6-morpholinopyrimidin-2-ylamino)pyridin-2-ol]",IC50,[2]; [3],1 to 10 µM
